From patent US20160346249A1 (priority 2012, published 2016)
Like-named read-outs stand apart in the source and are kept apart here.

Legend:
[1] = tested on: FMO, human liver microsome (HLM); assay: FMO dependent metabolism (pre-incubation temperature), human liver microsomes
Procedure: The microsomal incubation mixtures (ca. 0.2 mL) were prepared in triplicate in 0.1M potassium phosphate buffer (pH 7.4) containing 0.25 mg/mL microsomal protein (RLM and HLM), 1 mM EDTA, 4 mM MgCl2, and […]. Incubation mixtures were pre-incubated aerobically in a shaking water bath at 37° C. and 45° C. respectively for ca. 5 minutes. The reaction was initiated by the addition of NADPH (final concentration of 1 mM). […] For the positive controls, benzydamine (Sigma-Aldrich, St. Louis, Mo.) (final concentration 200 μM) was used in the incubation mixture. For the negative controls, water was used in the incubation mixtures instead of microsome protein. The mixtures were kept at ca. −20° C. before analysis by LC-MS/MS.
The incubation of benzydamine (positive control, 200 μM) was carried out concurrently and the formation of benzydamine N-oxide was monitored by LC-MS/MS.

human recombinant MAO-B = biological target: T1, human recombinant MAO-B (Homo sapiens, UniProt P27338); assay: Metabolism by recombinant MAO-B; assay type: in vitro ADME
T1 construct: purchased BD Biosciences, Woburn, Mass
T1 sequence (P27338 1-520): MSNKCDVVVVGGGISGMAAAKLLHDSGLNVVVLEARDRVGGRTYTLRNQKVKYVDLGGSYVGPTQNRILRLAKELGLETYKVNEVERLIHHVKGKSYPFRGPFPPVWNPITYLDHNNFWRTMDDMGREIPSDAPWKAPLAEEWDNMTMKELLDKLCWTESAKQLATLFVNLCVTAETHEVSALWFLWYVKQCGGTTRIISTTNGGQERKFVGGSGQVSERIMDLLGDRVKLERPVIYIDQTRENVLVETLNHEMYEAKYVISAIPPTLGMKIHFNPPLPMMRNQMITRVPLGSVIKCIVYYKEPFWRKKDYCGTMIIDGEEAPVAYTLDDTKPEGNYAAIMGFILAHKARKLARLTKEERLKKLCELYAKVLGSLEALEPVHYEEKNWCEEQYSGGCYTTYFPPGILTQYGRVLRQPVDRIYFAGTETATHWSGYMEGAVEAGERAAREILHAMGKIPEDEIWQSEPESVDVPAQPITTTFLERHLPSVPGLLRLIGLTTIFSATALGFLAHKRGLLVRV
Procedure: Incubation systems (ca. 0.2 mL) of human recombinant MAO-A (1.0 mg/mL) and MAO-B (1.0 mg/mL) (BD Biosciences, Woburn, Mass.) were prepared in triplicated 0.1 M potassium phosphate buffer (pH 7.4) (BD Biosciences, Woburn, Mass.). […] The negative samples were prepared as described above, with the exception that instead of HLM, HLmito, or recombinant enzymes, water was added to the incubation mixture.

[2] = Rat pilot developmental toxicity study
Procedure: Clinical observations, body weights, and food consumption were recorded periodically. On GD 20, a laparohysterectomy was performed on each surviving female. The uteri, placentas, and ovaries were examined; gravid uterine weights, the numbers of fetuses, early and late resorptions, total implantations, and corpora lutea were recorded. The fetuses were weighed, sexed, and examined for external malformations and developmental variations.

Caco-2 cells = assay: in vitro; assay type: in vitro ADME; conditions: human, Caco-2, 2 h, 10 μM, pH 7.4
Procedure: (§1) (Kalamazoo, Mich.). […] Receiver solutions consisted of buffer only. Sequential samples of transported solute are taken at 20 minute intervals in duplicate over 2 hours and the concentration of the transported compound was determined by HPLC-UV/MS. Test sample concentration is determined by LC/MS. Permeability coefficients are calculated for each sampling interval, and averages from the intervals were determined. The apparent permeability coefficient Papp is calculated from the equation where dQ/dt is the rate of permeation of drug across the cells, C0 is the original concentration in donor compartment at time zero, and A is the area of the cell monolayer. Mass balance in the system is ascertained by comparing the sum of transported solute and remaining donor solute to the starting solution concentration. The integrity of the monolayers is verified by monitoring Lucifer yellow permeation and the known P-glycoprotein substrate […] is used as a positive control.

in vitro = in vitro ADME; conditions: human, Caco-2, pH 7.4
Procedure: as §1

[3] = 2-week rat toxicology and toxicokinetic study; assay type: in vivo; conditions: for Cmax / Tmax / AUC(0-t): po; for AUC(0-t): read-out: AUC0-24
[4] = tested on: Salmonella typhimurium and Escherichia coli tester strains; assay: Bacterial reverse mutation assay (Ames); assay type: cell-based; conditions: up to 5000 μg/plate, with and without S9
[5] = Rabbit developmental toxicity study with toxicokinetics; conditions: female, New Zealand white, in vivo; for AUC(0-t) / Cmax / Tmax: pregnant rabbits; for AUC(0-t): GD 20, read-out: AUC0-24; for Cmax / Tmax: GD 20
Procedure: For the toxicology assessment, 27-33 per rabbits per group were dosed.
On GD 29, a laparohysterectomy was performed on each surviving female.

[6] = female, Crl:CD (SD)IGS BR, rat, in vivo, 10 mg/kg/day, females, 10 mg/kg/day, Day 0
[7] = female, Crl:CD (SD)IGS BR, rat, in vivo, 10 mg/kg/day, females, 10 mg/kg/day, Day 13
[8] = female, Crl:CD (SD)IGS BR, rat, in vivo, 20 mg/kg/day, females, 20 mg/kg/day, Day 0
[9] = female, Crl:CD (SD)IGS BR, rat, in vivo, 20 mg/kg/day, females, 20 mg/kg/day, Day 13
[10] = female, Crl:CD (SD)IGS BR, rat, in vivo, 40 mg/kg/day, females, 40 mg/kg/day, Day 0
[11] = female, Crl:CD (SD)IGS BR, rat, in vivo, 40 mg/kg/day, females, 40 mg/kg/day, Day 13
[12] = male, Crl:CD (SD)IGS BR, rat, in vivo, 10 mg/kg/day, males, 10 mg/kg/day, Day 13
[13] = male, Crl:CD (SD)IGS BR, rat, in vivo, 20 mg/kg/day, males, 20 mg/kg/day, Day 0
[14] = male, Crl:CD (SD)IGS BR, rat, in vivo, 20 mg/kg/day, males, 20 mg/kg/day, Day 13
[15] = male, Crl:CD (SD)IGS BR, rat, in vivo, 40 mg/kg/day, males, 40 mg/kg/day, Day 0
[16] = male, Crl:CD (SD)IGS BR, rat, in vivo, 40 mg/kg/day, males, 40 mg/kg/day, Day 13
[17] = male, Crl:CD(SD)IGS BR, rat, in vivo, 10 mg/kg/day, males, 10 mg/kg/day, Day 0

## O=C1NCC2(c3ccc(Cl)c(Cl)c3)CC12 (centres unmarked) [EB-10101, 5-(3,4-dichloro-phenyl)-3-aza-bicyclo[3.1.0]hexan-2-one]
[1]
  FMO mediation of formation: not FMO-mediated in humans
Human recombinant MAO-B
  MAO-B mediation of formation: not MAO-B mediated

## Clc1ccc([C@]23CNC[C@H]2C3)cc1Cl [amitifadine, (+)-1-(3,4-dichlorophenyl)-3-azabicyclo[3.1.0]hexane]
[2]; 25 mg/kg/day
  mean fetal weight: statistically significant reduction in mean fetal weight
[2]; 50 mg/kg/day, GD 8, 9 or 10
  maternal mortality: all females in the 50 mg/kg/day group were euthanized in extremis
Caco-2 cells
  Mass balance, AP→BL: 62%
  Mass balance, BL→AP: (88%)
In vitro
  recovery at 2 h, 10 μM: 62%
[3]; both sexes, Crl:CD(SD)IGS BR, rat, in vivo, oral gavage, 14 days, read-out: NOAEL for systemic toxicity
  NOAEL at 14 days: 40 mg/kg/day
[3]; [6]
  Cmax: 1830 ng/mL
  Tmax: 2 h
  AUC(0-t): 11600 ng·h/mL
[3]; [7]
  Cmax: 1150 ng/mL
  Tmax: 2 h
  AUC(0-t): 8190 ng·h/mL
[3]; [8]
  Cmax: 2800 ng/mL
  Tmax: 1 h
  AUC(0-t): 28600 ng·h/mL
[3]; [9]
  Cmax: 2300 ng/mL
  Tmax: 1 h
  AUC(0-t): 22000 ng·h/mL
[3]; [10]
  Cmax: 4440 ng/mL
  Tmax: 4 h
  AUC(0-t): 50600 ng·h/mL
[3]; [11]
  Cmax: 3100 ng/mL
  Tmax: 2 h
  AUC(0-t): 32900 ng·h/mL
[3]; females, 40 mg/kg/day
  increase in mean absolute liver weight: 18%
[3]; [12]
  Cmax: 878 ng/mL
  Tmax: 2 h
  AUC(0-t): 6310 ng·h/mL
[3]; [13]
  Cmax: 3000 ng/mL
  Tmax: 1 h
  AUC(0-t): 17400 ng·h/mL
[3]; [14]
  Tmax: 2 h
  AUC(0-t): 13000 ng·h/mL
[3]; [15]
  Cmax: 3040 ng/mL
  Tmax: 1 h
  AUC(0-t): 34800 ng·h/mL
[3]; [16]
  Cmax: 2730 ng/mL
  Tmax: 1 h
  AUC(0-t): 25600 ng·h/mL
[3]; [17]
  Tmax: 1 h
  AUC(0-t): 7880 ng·h/mL
[3]; males, 40 mg/kg/day
  increase in mean absolute liver weight: 20%
[4]
  bacterial reverse mutation assay outcome: negative in the bacterial reverse mutation assay
[5]; oral, 20 mg/kg/day
  AUC(0-t): 19200 ng·h/mL
[5]; po, oral gavage GD 7-20, read-out: NOAEL for developmental toxicity
  NOAEL: 20 mg/kg/day
[5]; po, oral gavage GD 7-20, read-out: NOAEL for maternal toxicity
  NOAEL: 10 mg/kg/day
[5]; po, 3 mg/kg/day
  Cmax: 309 ng/mL
  Tmax: 1 h
  AUC(0-t): 1320 ng·h/mL
[5]; po, 10 mg/kg/day
  Cmax: 1090 ng/mL
  Tmax: 1 h
  AUC(0-t): 5860 ng·h/mL
[5]; po, 20 mg/kg/day
  Cmax: 3200 ng/mL
  Tmax: 1 h
